Data from article PMC12587574, “Mass balance, pharmacokinetics, metabolism, and excretion of radiolabeled acoziborole, a potential novel treatment for human African trypanosomiasis, following single microtracer oral dose to humans” (Antimicrobial Agents and Chemotherapy, 2025).

Test: Safety and tolerability assessment, phase I mass balance study
Format: in vivo, human
Description: Safety was assessed by adverse event (AE) reports and at specific times during the physical examination, vital signs, 12-lead ECGs, and laboratory evaluations (see Supplementary Information section 2). AEs were all recorded from the time participants signed the consent form until the follow-up call, 5–10 days after final study discharge, and were evaluated for type, severity, frequency of AEs, and relationship to the IP.

CC1(C)OB(O)c2cc(NC(=O)c3ccc(F)cc3C(F)(F)F)ccc21 [acoziborole]
overall tolerability (960 mg single oral dose, N = 6): well-tolerated overall | Balanitis candida, participants (Day 1, N = 6): 0 (0.0) 0 (0.0) n (%) | Blood glucose increased, participants (Day 1, N = 6): 0 (0.0) 0 (0.0) n (%) | Gastrointestinal disorders (system organ class), events (Day 1, N = 6): 0 | Gastrointestinal disorders (system organ class), participants (Day 1, N = 6): 0 (0.0) n (%) | Headache, events (Day 1, N = 6): 2 | Headache, participants (Day 1, N = 6): 2 (33.3) n (%) | Infections and infestation (system organ class), events (Day 1, N = 6): 0 | Infections and infestation (system organ class), participants (Day 1, N = 6): 0 (0.0) n (%) | Injury, poisoning and procedural complications (system organ class), events (Day 1, N = 6): 0 | Injury, poisoning and procedural complications (system organ class), participants (Day 1, N = 6): 0 (0.0) n (%) | Investigations (system organ class), events (Day 1, N = 6): 0 | Investigations (system organ class), participants (Day 1, N = 6): 0 (0.0) n (%) | Myalgia, events (Day 1, N = 6): 0 | Myalgia, participants (Day 1, N = 6): 0 (0.0) n (%) | Nervous system disorders (system organ class), events (Day 1, N = 6): 2 | Nervous system disorders (system organ class), participants (Day 1, N = 6): 2 (33.3) n (%) | Phosphokinase increased, participants (Day 1, N = 6): 0 (0.0) 0 (0.0) n (%) | Rhinitis, participants (Day 1, N = 6): 0 (0.0) 0 (0.0) n (%) | Skin laceration, events (Day 1, N = 6): 0 | Skin laceration, participants (Day 1, N = 6): 0 (0.0) n (%) | Surgical and medical procedures (system organ class), events (Day 1, N = 6): 0 | Surgical and medical procedures (system organ class), participants (Day 1, N = 6): 0 (0.0) n (%) | TEAEs, events (Day 1, N = 6): 2 | TEAEs, participants (Day 1, N = 6): 2 (33.3) n (%) | Tooth repair, events (Day 1, N = 6): 0 | Tooth repair, participants (Day 1, N = 6): 0 (0.0) n (%) | Toothache, events (Day 1, N = 6): 0 | Toothache, participants (Day 1, N = 6): 0 (0.0) n (%) | Balanitis candida, events (Day 2 to Day 15, N = 6): 2 | Balanitis candida, participants (Day 2 to Day 15, N = 6): 1 (16.7) n (%) | Blood glucose increased, events (Day 2 to Day 15, N = 6): 0 | Blood glucose increased, participants (Day 2 to Day 15, N = 6): 0 (0.0) n (%) | Gastrointestinal disorders (system organ class), events (Day 2 to Day 15, N = 6): 1 | Gastrointestinal disorders (system organ class), participants (Day 2 to Day 15, N = 6): 1 (16.7) n (%) | Headache, events (Day 2 to Day 15, N = 6): 1 | Headache, participants (Day 2 to Day 15, N = 6): 1 (16.7) n (%) | Infections and infestation (system organ class), events (Day 2 to Day 15, N = 6): 2 | Infections and infestation (system organ class), participants (Day 2 to Day 15, N = 6): 1 (16.7) n (%) | Injury, poisoning and procedural complications (system organ class), events (Day 2 to Day 15, N = 6): 0 | Injury, poisoning and procedural complications (system organ class), participants (Day 2 to Day 15, N = 6): 0 (0.0) n (%) | Investigations (system organ class), events (Day 2 to Day 15, N = 6): 1 | Investigations (system organ class), participants (Day 2 to Day 15, N = 6): 1 (16.7) n (%) | Myalgia, events (Day 2 to Day 15, N = 6): 0 | Myalgia, participants (Day 2 to Day 15, N = 6): 0 (0.0) n (%) | Nervous system disorders (system organ class), events (Day 2 to Day 15, N = 6): 1 | Nervous system disorders (system organ class), participants (Day 2 to Day 15, N = 6): 1 (16.7) n (%) | Phosphokinase increased, events (Day 2 to Day 15, N = 6): 1 | Phosphokinase increased, participants (Day 2 to Day 15, N = 6): 1 (16.7) n (%) | Rhinitis, events (Day 2 to Day 15, N = 6): 0 | Rhinitis, participants (Day 2 to Day 15, N = 6): 0 (0.0) n (%) | Skin laceration, events (Day 2 to Day 15, N = 6): 0 | Skin laceration, participants (Day 2 to Day 15, N = 6): 0 (0.0) n (%) | Surgical and medical procedures (system organ class), events (Day 2 to Day 15, N = 6): 1 | Surgical and medical procedures (system organ class), participants (Day 2 to Day 15, N = 6): 1 (16.7) n (%) | TEAEs, events (Day 2 to Day 15, N = 6): 6 | TEAEs, participants (Day 2 to Day 15, N = 6): 4 (66.7) n (%) | Tooth repair, events (Day 2 to Day 15, N = 6): 1 | Tooth repair, participants (Day 2 to Day 15, N = 6): 1 (16.7) n (%) | Toothache, events (Day 2 to Day 15, N = 6): 1 | Toothache, participants (Day 2 to Day 15, N = 6): 1 (16.7) n (%) | Balanitis candida, events (Day 16 to end of study, N = 6): 0 | Balanitis candida, participants (Day 16 to end of study, N = 6): 0 (0.0) n (%) | Blood glucose increased, events (Day 16 to end of study, N = 6): 1 | Blood glucose increased, participants (Day 16 to end of study, N = 6): 1 (16.7) n (%) | Gastrointestinal disorders (system organ class), events (Day 16 to end of study, N = 6): 0 | Gastrointestinal disorders (system organ class), participants (Day 16 to end of study, N = 6): 0 (0.0) n (%) | Headache, events (Day 16 to end of study, N = 6): 1 | Headache, participants (Day 16 to end of study, N = 6): 1 (16.7) n (%) | Infections and infestation (system organ class), events (Day 16 to end of study, N = 6): 1 | Infections and infestation (system organ class), participants (Day 16 to end of study, N = 6): 1 (16.7) n (%) | Injury, poisoning and procedural complications (system organ class), events (Day 16 to end of study, N = 6): 1 | Injury, poisoning and procedural complications (system organ class), participants (Day 16 to end of study, N = 6): 1 (16.7) n (%) | Investigations (system organ class), events (Day 16 to end of study, N = 6): 1 | Investigations (system organ class), participants (Day 16 to end of study, N = 6): 1 (16.7) n (%) | Myalgia, events (Day 16 to end of study, N = 6): 1 | Myalgia, participants (Day 16 to end of study, N = 6): 1 (16.7) n (%) | Nervous system disorders (system organ class), events (Day 16 to end of study, N = 6): 1 | Nervous system disorders (system organ class), participants (Day 16 to end of study, N = 6): 1 (16.7) n (%) | Phosphokinase increased, events (Day 16 to end of study, N = 6): 0 | Phosphokinase increased, participants (Day 16 to end of study, N = 6): 0 (0.0) n (%) | Rhinitis, events (Day 16 to end of study, N = 6): 1 | Rhinitis, participants (Day 16 to end of study, N = 6): 1 (16.7) n (%) | Skin laceration, events (Day 16 to end of study, N = 6): 1 | Skin laceration, participants (Day 16 to end of study, N = 6): 1 (16.7) n (%) | Surgical and medical procedures (system organ class), events (Day 16 to end of study, N = 6): 0 | Surgical and medical procedures (system organ class), participants (Day 16 to end of study, N = 6): 0 (0.0) n (%) | TEAEs, events (Day 16 to end of study, N = 6): 5 | TEAEs, participants (Day 16 to end of study, N = 6): 3 (50.0) n (%) | Tooth repair, events (Day 16 to end of study, N = 6): 0 | Tooth repair, participants (Day 16 to end of study, N = 6): 0 (0.0) n (%) | Toothache, events (Day 16 to end of study, N = 6): 0 | Toothache, participants (Day 16 to end of study, N = 6): 0 (0.0) n (%) | TEAEs not considered related to the IP (N = 6): 10/13 | changes in ECG parameters, vital signs, or physical examination post-dose (N = 6): no significant changes | deaths, serious AEs, discontinuations due to AE (N = 6): no deaths, serious AEs, or participant discontinuations due to any AE | mean laboratory testing results (blood chemistry, hematology, urinalysis) (N = 6): within acceptable range or considered non-clinically significant | severity of reported TEAEs (N = 6): mild or moderate | Musculoskeletal and connective tissue disorders (system organ class), events (human, in vivo, 1 day): 0 | Musculoskeletal and connective tissue disorders (system organ class), participants (human, in vivo, 1 day): 0 (0.0) n (%) | treatment-emergent AEs, total number (in the six participants): 13
